Measurements published in patent US12594258B2, “Inhibitors of MHC-I Nef downmodulation for treating HIV” (priority 2019, dated 2026).
“Also recorded” adds a separate entry of the source. Like-named read-outs stand apart in the source and are kept apart here.

What was measured:
[1] = tested on: primary CD4+ T cells; assay: MTT and flow cytometric viability assays in primary CD4+ T cells; type: cell-based, human; settings: Nef activity 24 hours, viability 72 hours
Protocol: CD4^+ T cells were plated at a density of 1×10^5 cells in 200 μL R10-50 in flat-bottom 96-well plates 4 days post-stimulation with PHA. Cells were exposed to titrations of plecomacrolides or solvent controls for 72 hours in culture, at which point viability was assessed relative to solvent by MTT assay in experimental duplicates. Equal volumes of cell culture medium containing CD4^+ T cells were pelleted in 96-well round-bottom plates and incubated in 4.5 mg/mL MTT (Fisher, M6494) in R10 with no Phenol Red at 37° C. until the purple formazan signal was clearly visible. The absorbance of cell pellets resuspended in DMSO was measured at 595 nm on a Molecular Devices Emax precision microplate reader and compared a standard curve of known viable cell numbers to ensure the experimental samples fell within the linear range of the assay.

[2] = tested on: lysosomal pH in human monocyte-derive macrophages (MDMs); assay: Lysosensor Yellow/Blue dextran analysis of lysosomal pH in MDMs; type: cell-based
Protocol: To measure the lysosomal pH in human monocyte-derive macrophages (MDMs), MDMs adhered to 24-well plates were exposed to 500 μg/mL Lysosensor Yellow/Blue dextran, 10,000 MW (ThermoFisher, L22460) in R10 for 24 hours. MDMs were then exposed to plecomacrolides for 1 hour and harvested with 0.05% Trypsin-EDTA (Gibco 25300054). Cells were washed twice in FACS buffer, and analyzed on a MoFlo Astrios flow cytometer, with blue signal excited from a 354 nm laser and yellow signal excited from a 405 nm laser. A standard curve was generated by resuspending MDMs in equilibration buffers of known pH as previously described. The ratio of blue:yellow fluorescence intensity was calculated for each cell, the median blue:yellow ratio for the cell population for each condition was obtained, and the lysosomal pH in MDMs was calculated for each condition using the standard curve.
Lysosensor Yellow/Blue Dextran Analysis of Lysosomal pH. To measure the lysosomal pH in human MDMs, MDMs adhered to 24-well plates were exposed to 500 μg/mL Lysosensor Yellow/Blue dextran, 10,000 molecular weight (MVV) in R10 for 24 h. MDMs were then exposed to plecomacrolides for 1 h and harvested with 0.05% Trypsin-(ethylenedinitrilo)tetraacetic acid (EDTA). Cells were washed twice in FACS buffer, and analyzed on a flow cytometer, with blue signal excited from a 354-nm laser and yellow signal excited from a 405-nm laser. A standard curve was generated by resuspending MDMs in equilibration buffers of known pH. The ratio of blue:yellow fluorescence intensity was calculated for each cell, the median blue:yellow ratio for the cell population for each condition was obtained, and the lysosomal pH in MDMs was calculated for each condition using the standard curve.

[3] = tested on: HIV Nef
[4] = tested on: HIV Nef; remark: listed apart in the source

SMILES | difference between the 50% effective and toxic concentrations (EC50 and TC50) [1] [fold] | neutralization of lysosomal pH [2] | EC50 ([2]; 1 hour, read-out: EC50 for lysosome neutralization) [nM] | reduction of Nef-dependent HLA-A2 downmodulation [3] | reduction of Nef-dependent HLA-A2 downmodulation ([4]; primary T cells transduced with ΔGPE) [fold] | EC50 ([4]; read-out: EC50 for Nef inhibition, HIV-infected primary CD4+ T cells, HLA-A2) [nM] | level of MHC-I restoration compared to CMA [4] | restoration of MHC-I ([4]; 24 hours post-treatment) | restoration of MHC-I to the surface of Nef-expressing cells ([4]; 48 hours of exposure) | concentration required for restoration of MHC-I compared to CMA ([4]; higher than CMA)
CO/C1=C\C(C)=C\[C@@H](C)[C@@H](O)[C@@H](C)C/C(C)=C/C=C/[C@H](OC)[C@@H]([C@@H](C)[C@@H](O)[C@H](C)[C@@]2(O)C[C@@H](O)[C@H](C)[C@@H](C(C)C)O2)OC1=O [Baf A1] | […] | completely neutralize lysosomal pH | […] | over ten-fold | […] | […] |  |  |  | 
CC[C@H](C)C(=O)O[C@H]1C[C@@H](C)C=C2C=C[C@H](C)[C@H](CC[C@@H]3C[C@@H](O)CC(=O)O3)[C@H]21 [lovastatin, Lovastatin] |  |  |  |  |  |  | a fraction of the levels achieved by CMA; also recorded: did not achieve comparable levels | little restoration of MHC-I | partially restore MHC-I | 2,000 fold
